Test results published in US7981901B2, “Compositions and methods for targeting cerebral circulation and treatment of headache” (priority 2001, dated 2011).

Legend:
fever = conditions: oral delivery; cited from earlier work
headache = experiment: Topical NSAID formulations in treatment of headache (inventors' observation); type: in vivo, human; conditions: topically applied to tender spot or area superficial to carotid, temporal and/or vertebral artery
Excerpt: Especially preferred compositions include a xanthine derivative in a concentration of about 4% (wt) to 70% (wt) and ketoprofen in a concentration of about 0.5% (wt) to 50% (wt). With respect to the xanthine derivative, the same considerations as described above apply. Furthermore, such particularly preferred compositions may be formulated in a lecithin-containing formulation or a pluronic-lecithin-organogel formulation (supra). It should be especially recognized, that compositions including a xanthine derivative or an NSAID have generally been described in the art. However, the inventors observed that formulations including an NSAID other than Ketoprofen generally fail to provide relief in treatment of a headache, when topically applied to a person (either to a tender spot, or to an area superficial to a carotid artery, a temporal artery and/or a vertebral artery). […] While not wishing to be bound by a particular hypothesis or theory, the inventors contemplate that the effect of Ketoprofen may be at least in part mediated by a muscle-relaxant effect rather than via a suppressive effect in inflammation.

SMILES	time to achieve sufficient concentration in the plasma to lower the fever (fever)	relief in treatment of a headache (headache)
CC(=O)Nc1ccc(O)cc1 [acetaminophen, Acetaminophen]	at least 20 minutes	–
CC(C(=O)O)c1cccc(C(=O)c2ccccc2)c1 (centres unmarked) [Ketoprofen, 2-(meta-benzoylphenyl)propionic acid]	–	the only NSAID effective in treatment of a headache
